Experimental data from patent US6187800A, “Method for the prevention and treatment of mastitis” (Novartis Animal Health U.S., Inc., priority 1997, dated 2001).

What was measured:
[1] = Hydrophobicity and water solubility
[2] = system: pathogens causing bovine mastitis; assay: Activity against mastitis pathogens (general statement); format: cell-based
Lactobacillus bulgaricus = assay: Acidification of milk from treated cows by lactic fermenting bacteria; format: cell-based; details: 3 doses at 12 h
Description: (§1) Acidification is the first and most important step in the manufacturing processes when milk is fermented. If acidification proceeds normally then it is very likely that all other steps will be normal. Therefore one can investigate the effect of different concentrations of micrococcin P1 on the kinetics of acidification of milk by lactic fermenting bacteria.
(§2) Cows that are free from infection with mastitis pathogens, based on bacteriological culture of milk, are enrolled in these trials. Identical treatments are administered to all 4 quarters of an individual cow. Milk from evening milkings is refrigerated at 4° C. overnight to be tested the following morning. Samples of 500 ml are pasteurized by heating to 80° C. in a waterbath and then cooled to room temperature.
(§3) Lyophylised cultures as used in commercial conditions are obtained from Rudolf Wittwer, CH-5002 Rombach, Aarau, Switzerland. These cultures are reconstituted according to manufacturers recommendations and reactivated by passage three times in sterile skimmed milk. Each passage is incubated for 16 to 18 hours at the optimum temperature for the said bacterial strain.
(§4) The culture obtained after the third passage is diluted to 2% with whole sterile (UHT) milk, aliquotted in 10 ml tubes and frozen at -20° C. for use in experiments.
(§5) The stock cultures prepared above are thawed at 40° C. then incubated overnight at 37° C. and used to inoculate test samples. The test samples are inoculated with 2% by volume of the experimental culture of the bacterial strain under test. The samples are then mixed and incubated for 24 hours at the optimal temperature for the particular bacterial strain under evaluation. The pH is measured each two hours during an eight hour period and again at 24 hours. The rate of acidification of milk containing different concentrations of active micrococcin P1 can then be compared to the negative controls.
(§6) The results given in tables 4 and 5 below have been obtained from cows receiving various amounts of micrococcin P1 on three occasions, at 12 hour intervals.

[3] = system: Streptococcus thermophilus; assay: as above; format: cell-based; details: 3 doses at 12 h
Description: as §1, §2, §3, §4, §5, §6

Staphylococcus aureus = assay: Efficacy in subclinical bovine mastitis (experimentally infected quarters, intramammary treatment); format: in vivo, cows (bovine); details: n = 9
Description: A dairy herd is maintained to supply candidate cows for enrollment in trials. Cows are bought from local cattle dealers. These cows should have a minimal milk production of 15 l/day. Two milk samples are taken one day apart from all quarters for bacteriological examination. No cows from which mastitis pathogens can be recovered are entered into the tests. Non-infected cows are selected based on non recovery of Staphylococcus aureus from two milk samples taken one day apart from all quarters. Then, 3 quarters are inoculated via the intramammary route using a suspension of Staphylococcus aureus. The 4th quarter serves as a control for the milking hygiene routines. During the two to four weeks after inoculation, milk samples are taken from all quarters, at least 3 times. These samples are cultured, and if Staphylococcus aureus is recovered from at least two of them, the quarter is considered infected.
Treatments are assigned randomly to infected quarters and injected via the intramammary route. Milk samples are taken daily until a minimum of 14 days after the last treatment. A quarter is considered to be cured if milk samples from that quarter become negative (i.e., no Staphylococcus aureus can be recovered) within 7 days after the last treatment and stay negative throughout the following 14 day sampling period.
This experimental model is used to have a fixed framework on which to evaluate treatments. To work with Staphylococcus aureus has the advantage that it is the most difficult Gram positive bacterium to treat and one of the most important bacteria causing bovine mastitis. Therefore, cure rates should be expected to be lower than for other Gram positive bacteria, such as Streptococci and coagulase-negative Staphylococci.
The results presented in Table 2 show the percentage of quarters positive for Staphylococcus aureus (i.e., quarters from which Staphylococcus aureus can be recovered) during and after treatment with 3 doses of either placebo, 2 mg micrococcin P1, or 300 mg ampiclox at 12 hour intervals, or 3 doses with 4 mg micrococcin P1 at 48 hour intervals.

Bacillus cereus = assay: MIC, agar well diffusion method; format: cell-based; details: plate count agar +0.2% potato starch
Description: (§7) The minimal inhibitory concentrations (MIC) of micrococcin P1 against a panel of test organisms were determined using an agar well diffusion method. Agar plates were overlaid with soft agar seeded with the test organism. When the agar had solidified wells of 4 mm diameter were cut in the agar. 50 μl of a series of two fold dilutions of the peptide in citrate buffer pH4 were applied to the wells and the plates were kept at 4° C. for two hours prior to incubation at 37° C. overnight. The MIC was determined as the lowest concentration of peptide giving a clear zone of lysis around the well. Indicator strains were grown in Tryptose broth (Difco). M17 medium (Merck) was used for plates and soft agar with the following exceptions. For Pasteurella haemolytica, tryptose supplemented with 5% of toetal calf's serum was used. For Leuconostoc mesenteroides, plate count agar--Merck--, +15% saccharose was used, and for Bacillus cereus plate count agar +0.2% potato starch-Sigma 2004-) was used.

[4] = system: Leuconostoc mesenteroides; assay: MIC, agar well diffusion method; format: cell-based; details: plate count agar +15% saccharose
Description: as §7

[5] = system: Staphylococcus aureus V557; assay: MIC, agar well diffusion method; format: cell-based; details: 37° C. overnight
Description: as §7

Pasteurella haemolytica = assay: MIC, agar well diffusion method; format: cell-based; details: tryptose + 5% foetal calf's serum
Description: as §7

Listeria innocua = assay: MIC, agar well diffusion method; format: cell-based; details: 37° C. overnight
Description: as §7

E.coli = assay: MIC, agar well diffusion method; format: cell-based; details: 37° C. overnight
Description: as §7

Streptococcus faecalis = assay: MIC, agar well diffusion method; format: cell-based; details: 37° C. overnight
Description: as §7

Streptococcus uberis = assay: MIC, agar well diffusion method; format: cell-based; details: 37° C. overnight
Description: as §7

Micrococcus luteus = assay: MIC, agar well diffusion method; format: cell-based; details: 37° C. overnight
Description: as §7

[6] = system: Staphylococcus aureus Newbould; assay: MIC, agar well diffusion method; format: cell-based; details: 37° C. overnight
Description: as §7

micrococcin P1
hydrophobicity [1]: highly hydrophobic | solubility in water [1]: poorly soluble in water | activity against pathogens causing bovine mastitis [2]: highly active against pathogens causing bovine mastitis | pH (acidification of milk) (Lactobacillus bulgaricus; 0.1 mg, 0 hours of growth): 6.48 | pH (acidification of milk) (Lactobacillus bulgaricus; 0.1 mg, 2 hours of growth): 5.73 | pH (acidification of milk) (Lactobacillus bulgaricus; 0.1 mg, 4 hours of growth): 4.29 | pH (acidification of milk) (Lactobacillus bulgaricus; 0.1 mg, 6 hours of growth): 3.89 | pH (acidification of milk) (Lactobacillus bulgaricus; 0.1 mg, 8 hours of growth): 3.72 | pH (acidification of milk) (Lactobacillus bulgaricus; 0.1 mg, 24 hours of growth): 3.51 | pH (acidification of milk) (Lactobacillus bulgaricus; 0.5 mg, 0 hours of growth): 6.53 | pH (acidification of milk) (Lactobacillus bulgaricus; 0.5 mg, 2 hours of growth): 5.36 | pH (acidification of milk) (Lactobacillus bulgaricus; 0.5 mg, 4 hours of growth): 4.21 | pH (acidification of milk) (Lactobacillus bulgaricus; 0.5 mg, 6 hours of growth): 3.85 | pH (acidification of milk) (Lactobacillus bulgaricus; 0.5 mg, 8 hours of growth): 3.72 | pH (acidification of milk) (Lactobacillus bulgaricus; 0.5 mg, 24 hours of growth): 3.47 | pH (acidification of milk) (Lactobacillus bulgaricus; 1 mg, 0 hours of growth): 6.56 | pH (acidification of milk) (Lactobacillus bulgaricus; 1 mg, 2 hours of growth): 5.83 | pH (acidification of milk) (Lactobacillus bulgaricus; 1 mg, 4 hours of growth): 4.34 | pH (acidification of milk) (Lactobacillus bulgaricus; 1 mg, 6 hours of growth): 3.94 | pH (acidification of milk) (Lactobacillus bulgaricus; 1 mg, 8 hours of growth): 3.75 | pH (acidification of milk) (Lactobacillus bulgaricus; 1 mg, 24 hours of growth): 3.50 | pH (acidification of milk) (Lactobacillus bulgaricus; 2 mg, 0 hours of growth): 6.57 | pH (acidification of milk) (Lactobacillus bulgaricus; 2 mg, 2 hours of growth): 5.69 | pH (acidification of milk) (Lactobacillus bulgaricus; 2 mg, 4 hours of growth): 4.34 | pH (acidification of milk) (Lactobacillus bulgaricus; 2 mg, 6 hours of growth): 3.92 | pH (acidification of milk) (Lactobacillus bulgaricus; 2 mg, 8 hours of growth): 3.75 | pH (acidification of milk) (Lactobacillus bulgaricus; 2 mg, 24 hours of growth): 3.49 | pH (acidification of milk) ([3]; 0.1 mg, 0 hours of growth): 6.60 | pH (acidification of milk) ([3]; 0.1 mg, 2 hours of growth): 6.03 | pH (acidification of milk) ([3]; 0.1 mg, 4 hours of growth): 4.47 | pH (acidification of milk) ([3]; 0.1 mg, 6 hours of growth): 4.08 | pH (acidification of milk) ([3]; 0.1 mg, 8 hours of growth): 3.94 | pH (acidification of milk) ([3]; 0.1 mg, 24 hours of growth): 3.52 | pH (acidification of milk) ([3]; 0.5 mg, 0 hours of growth): 6.61 | pH (acidification of milk) ([3]; 0.5 mg, 2 hours of growth): 6.04 | pH (acidification of milk) ([3]; 0.5 mg, 4 hours of growth): 4.50 | pH (acidification of milk) ([3]; 0.5 mg, 6 hours of growth): 4.13 | pH (acidification of milk) ([3]; 0.5 mg, 8 hours of growth): 4.00 | pH (acidification of milk) ([3]; 0.5 mg, 24 hours of growth): 3.51 | pH (acidification of milk) ([3]; 1 mg, 0 hours of growth): 6.67 | pH (acidification of milk) ([3]; 1 mg, 2 hours of growth): 6.20 | pH (acidification of milk) ([3]; 1 mg, 4 hours of growth): 4.53 | pH (acidification of milk) ([3]; 1 mg, 6 hours of growth): 4.11 | pH (acidification of milk) ([3]; 1 mg, 8 hours of growth): 3.94 | pH (acidification of milk) ([3]; 1 mg, 24 hours of growth): 3.48 | pH (acidification of milk) ([3]; 2 mg, 0 hours of growth): 6.72 | pH (acidification of milk) ([3]; 2 mg, 2 hours of growth): 6.33 | pH (acidification of milk) ([3]; 2 mg, 4 hours of growth): 4.74 | pH (acidification of milk) ([3]; 2 mg, 6 hours of growth): 4.25 | pH (acidification of milk) ([3]; 2 mg, 8 hours of growth): 4.06 | pH (acidification of milk) ([3]; 2 mg, 24 hours of growth): 3.57 | % of quarters positive (Staphylococcus aureus; 3 × 2 mg each 12 hours, day 0 after start of treatment): 100.0% | % of quarters positive (Staphylococcus aureus; 3 × 2 mg each 12 hours, day 1 after start of treatment): 62.5% | % of quarters positive (Staphylococcus aureus; 3 × 2 mg each 12 hours, day 2 after start of treatment): 12.5% | % of quarters positive (Staphylococcus aureus; 3 × 2 mg each 12 hours, day 3 after start of treatment): 50.0% | % of quarters positive (Staphylococcus aureus; 3 × 2 mg each 12 hours, day 4 after start of treatment): 50.0% | % of quarters positive (Staphylococcus aureus; 3 × 2 mg each 12 hours, day 5 after start of treatment): 62.5% | % of quarters positive (Staphylococcus aureus; 3 × 2 mg each 12 hours, day 7 after start of treatment): 62.5% | % of quarters positive (Staphylococcus aureus; 3 × 2 mg each 12 hours, day 8 after start of treatment): 75.0% | % of quarters positive (Staphylococcus aureus; 3 × 2 mg each 12 hours, day 9 after start of treatment): 75.0% | % of quarters positive (Staphylococcus aureus; 3 × 2 mg each 12 hours, day 10 after start of treatment): 75.0% | % of quarters positive (Staphylococcus aureus; 3 × 2 mg each 12 hours, day 11 after start of treatment): 87.5% | % of quarters positive (Staphylococcus aureus; 3 × 2 mg each 12 hours, day 12 after start of treatment): 75.0% | % of quarters positive (Staphylococcus aureus; 3 × 2 mg each 12 hours, day 14 after start of treatment): 87.5% | % of quarters positive (Staphylococcus aureus; 3 × 2 mg each 12 hours, day 15 after start of treatment): 62.5% | % of quarters positive (Staphylococcus aureus; 3 × 2 mg each 12 hours, day 16 after start of treatment): 75.0% | % of quarters positive (Staphylococcus aureus; 3 × 4 mg each 48 hours, day 0 after start of treatment): 100% | % of quarters positive (Staphylococcus aureus; 3 × 4 mg each 48 hours, day 1 after start of treatment): 22% | % of quarters positive (Staphylococcus aureus; 3 × 4 mg each 48 hours, day 2 after start of treatment): 22% | % of quarters positive (Staphylococcus aureus; 3 × 4 mg each 48 hours, day 3 after start of treatment): 11% | % of quarters positive (Staphylococcus aureus; 3 × 4 mg each 48 hours, day 4 after start of treatment): 11% | % of quarters positive (Staphylococcus aureus; 3 × 4 mg each 48 hours, day 5 after start of treatment): 0% | % of quarters positive (Staphylococcus aureus; 3 × 4 mg each 48 hours, day 7 after start of treatment): 0% | % of quarters positive (Staphylococcus aureus; 3 × 4 mg each 48 hours, day 8 after start of treatment): 22% | % of quarters positive (Staphylococcus aureus; 3 × 4 mg each 48 hours, day 9 after start of treatment): 22% | % of quarters positive (Staphylococcus aureus; 3 × 4 mg each 48 hours, day 10 after start of treatment): 22% | % of quarters positive (Staphylococcus aureus; 3 × 4 mg each 48 hours, day 11 after start of treatment): 22% | % of quarters positive (Staphylococcus aureus; 3 × 4 mg each 48 hours, day 12 after start of treatment): 22% | % of quarters positive (Staphylococcus aureus; 3 × 4 mg each 48 hours, day 14 after start of treatment): 44% | % of quarters positive (Staphylococcus aureus; 3 × 4 mg each 48 hours, day 15 after start of treatment): 44% | % of quarters positive (Staphylococcus aureus; 3 × 4 mg each 48 hours, day 16 after start of treatment): 22% | MIC (Bacillus cereus): 0.24 µg/mL | MIC [4]: > 1000 µg/mL | MIC [5]: 1.91 µg/mL | MIC (Pasteurella haemolytica): > 1000 µg/mL | MIC (Listeria innocua): 1.95 µg/mL | MIC (E.coli): > 1000 µg/mL | MIC (Streptococcus faecalis): 1.98 µg/mL | MIC (Streptococcus uberis): 1.49 µg/mL | MIC (Micrococcus luteus): 0.015 µg/mL | MIC [6]: 0.24 µg/mL
